Values joined by “and” are separate entries in the source; they are usually repeats but may differ in a detail not shown here. Identical values can stand only once.

The subject of assay [1] is lung cancer cell lines (A549). The experiment in a line: DNA fragmentation assay (diphenylamine reaction). The assay is classed as cell-based, human. The conditions noted are these: for DNA fragmentation Change: change vs negative control; for DNA fragmentation% (M ± SEM): negative control 12.54 ± 0.45. As for the experimental part:
The DNA fragmentation assay in lung cancer cell lines was performed in accordance with the protocol established by Yawata (1998)[34] with some modifications. […] The low-molecular-weight genomic DNA was extracted as described in Yawata (1998).[34] Approximately 1 × 10^6 cells of each treatment were plated. All the cells (including floating cells) were harvested and washed with Dulbecco's phosphate buffered saline. The cancer cells were lysed with the lysis buffer containing 10 mM Tris (pH 7.4), 150 mM NaCl, 5 mM ethylenediaminetetraacetic acid (EDTA), and 0.5% Triton X-100 for 30 min on ice. Lysates were vortexed and cleared by centrifugation at 10 000 g for 20 min. Fragmented DNA in the supernatant was extracted with an equal volume of a neutral phenol : chloroform : isoamyl alcohol mixture (25 : 24 : 1) and analyzed electrophoretically on 2% agarose gels containing 0.1 μg ml^−1 ethidium bromide.
The lung cancer cell lines (A549) were used to determine the quantitative profile of the DNA fragmentation. […] The cancer cells were lysed in 0.5 ml of lysis buffer containing 10 mM Tris–HCl (pH 8), 1 mM EDTA, and 0.2% Triton X-100 and centrifuged at 10 000 rpm (Eppendorf) for 20 min at 4 °C. The pellets were re-suspended in 0.5 ml of lysis buffer. To the pellets (P) and the supernatants (S), 0.5 ml of 25% tri-chloroacetic acid (TCA) was added and incubated at 4 °C for 24 h. The cells were then centrifuged for 20 min at 10 000 rpm (Eppendorf) at 4 °C and the pellets were suspended in […] of 5% TCA, followed by incubation at 83 °C for 20 min. Subsequently, to each cell sample, […] of diphenylamine (DPA) solution [150 mg DPA in 10 ml glacial acetic acid, […] of sulfuric acid and […] acetaldehyde (16 mg ml^−1)] was added and incubated at room temperature for 24 h (Gibb et al.,[35] 1997). The proportion of the fragmented DNA was calculated from the absorbance values at 600 nm wavelength using the formula:% fragmented DNA = [OD(S)/[OD(S) + OD(P)]] × 100(OD: optical density, S: supernatants, P: pellets).

Assay [2] relates to BCL-2 gene expression in lung cancer cell lines. The experiment in a line: qRT-PCR gene expression, BCL-2. The assay is classed as cell-based, human. The conditions noted are these: treated lung cancer cell lines vs negative control; descending order 7g, Dox, 7a. Here is the method: The RNeasy Mini Kit (Qiagen, Hilden, Germany), augmented with a DNaseI (Qiagen) digestion step, was employed to extract total RNA from lung cancer cell lines following the manufacturer's procedure. The isolated total RNA was treated with one unit of RQ1 RNAse-free DNAse (Invitrogen, Germany) to eliminate DNA remnants, re-suspended in DEPC-treated water, and quantified photometrically at 260 nm. The purity of total RNA was evaluated using the 260/280 nm ratio, which ranged from 1.8 to 2.1.[27]
Furthermore, integrity was confirmed using ethidium bromide-stained examination of 28S and 18S bands via formaldehyde-containing agarose gel electrophoresis. Aliquots were utilized immediately for reverse transcription (RT); otherwise, they were preserved at −80 °C.
The poly(A) + RNA extracted from the lung cancer cell lines was reverse transcribed into the cDNA in a total amount of 20 μl utilizing the Revert Aid TM First Strand cDNA Synthesis Kit (Fermentas, Germany). A total of 5 μg of RNA was utilized with a master mix. The master mix comprised 50 mM MgCl2, 10× RT buffer (50 mM KCl; 10 mM Tris–HCl; pH 8.3), 10 mM of each dNTP, 50 μM oligo-dT primer, 20 IU ribonuclease inhibitor (50 kDa recombinant enzyme to suppress RNase activity), and 50 IU MuLV reverse transcriptase. Each sample mixture was centrifuged for 30 seconds at 1000 g and thereafter transferred to the thermocycler. The RT reaction was conducted at 25 °C for 10 minutes, subsequently at 42 °C for 1 hour, and concluded with a denaturation phase at 99 °C for 5 minutes. Subsequently, the reaction tubes containing RT-prepared samples were rapidly chilled in an ice chamber prior to cDNA amplification via the quantitative real-time polymerase chain reaction (qRT-PCR).
The cDNA copy number of lung cancer cell lines was determined using the StepOne™ Real-Time PCR System from Applied Biosystems (Thermo Fisher Scientific, Waltham, MA, USA). […]
The reaction protocol was divided into three stages. […] The relative quantification of the target gene to the reference gene was assessed using the 2^−ΔΔCT method.[29–31]

In the case of `Cc1nn2c(C)nn(-c3ccc([N+](=O)[O-])cc3)c2nc1=O` [Compound 7a, 3,6-Dimethyl-1-(4-nitrophenyl)-[1,2,4]triazolo[4,3-b][1,2,4]triazin-7(1H)-one], in assay [1], the “DNA fragmentation Inhibition%” value was determined as 27.78%; the “DNA fragmentation Change” value is 20.24; the “DNA fragmentation% (M ± SEM)” value is 32.78 ± 1.35% and 32.78 ± 1.35^a %. In assay [2], the “BCL-2 (anti-apoptotic gene) expression level” value was “diminished”.

In the case of `COc1ccc(-c2nn(-c3ccccc3)c3nc(=O)c(C)nn23)cc1` [Compound 7g, 3-(4-Methoxyphenyl)-6-methyl-1-phenyl-[1,2,4]triazolo[4,3-b][1,2,4]triazin-7(1H)-one], in assay [1], the “DNA fragmentation Inhibition%” value is 17.74%; the “DNA fragmentation Change” value was determined as 13.03; the “DNA fragmentation% (M ± SEM)” value was 25.57 ± 0.94% and 25.57 ± 0.94^b %. Further, the “BCL-2 (anti-apoptotic gene) expression level” value in assay [2] is “diminished”.

`COc1cccc2c1C(=O)c1c(O)c3c(c(O)c1C2=O)C[C@@](O)(C(=O)CO)C[C@@H]3O[C@H]1C[C@H](N)[C@H](O)[C@H](C)O1` [Dox, Doxorubicin, reference compound]: in assay [1], the “DNA fragmentation Inhibition%” value turned out to be 19.69% and the “DNA fragmentation Change” value is 15.84. The “BCL-2 (anti-apoptotic gene) expression level” value in assay [2] is recorded as “diminished”.

(Values after publication PMC11862990, “Utility of 6-aza-2-thiothymine in the synthesis of novel [1,2,4]triazolo[4,3-b][1,2,4]triazin-7-one derivatives: synthesis, structure elucidation, molecular docking and in vitro anti-lung cancer activity” (RSC Advances, 2025).)
